Experimental data taken from patent publication US20210353577A1, “METHODS FOR THE PREPARATION OF A LEVOTHYROXINE SOLUTION” (EMP Levo US B.V., priority 2016, published 2021).
Read-outs that look alike come from different tables or passages of the source.

How the values were obtained:
[1] = cited from earlier work; for behaviour in an aqueous solution: GB2191695
[2] = test system: micro-organisms as shown in the tables 10A-F; test: Efficacy of antimicrobial preservation, overall judgement; format: cell-based; conditions: Ph. Eur. 9.0, section 5.1.3; in oral levothyroxine solution
Text: Preservation Efficacy Tests […] As comparison, sample 1 of U.S. Pat. No. 9,345,722 has been prepared, in accordance with example 6 of U.S. Pat. No. 9,345,722. The test consists of challenging the sample solution with a prescribed inoculum of suitable micro-organisms as shown in the tables 10A-F, storing the inoculated solution at ambient temperature, avoiding sunlight, withdrawing samples from the container at specified intervals of time and counting the micro-organisms in the samples so removed. The preservative properties of the solution are adequate if, in the conditions of the test, there is a significant fall or no increase, as appropriate, in the number of micro-organisms in the inoculated solution after 14 and 28 days. ATCC stands for the deposit number of the micro-organism at the American Type Culture Collection ATCC.

SMILES	efficacy of antimicrobial preservation in words [2]	other results
N[C@@H](Cc1cc(I)c(Oc2cc(I)c(O)c(I)c2)c(I)c1)C(=O)[O-].[Na+] [Levothyroxine sodium, sodium (2S)-2-amino-3-[4-(4-hydroxy-3,5-diiodophenoxy)-3,5-diiodophenyl]-propanoate]	–	solubility in 96% ethanol ([1]; 96% ethanol): slightly soluble; solubility in water ([1]; water): very slightly soluble
O=C(O)c1ccccc1 [benzoic acid]	comply with the relevant criteria	–
N[C@@H](Cc1cc(I)c(Oc2cc(I)c(O)c(I)c2)c(I)c1)C(=O)O [levothyroxine, 3,5,3′,5′-tetraiodo-L-thyronine]	–	behaviour in an aqueous solution ([1]; pH 11-12): dissolves; behaviour in an aqueous solution ([1]; pH lowered further to pH 5-6): formation of a precipitate; behaviour in an aqueous solution ([1]; pH lowered to pH 7): white pale suspension
O=C([O-])c1ccccc1.[K+] [potassium benzoate]	results similar to that of sodium benzoate	–
C/C=C/C=C/C(=O)[O-].[K+] [potassium sorbate]	results similar to that of sorbic acid	–
O=C([O-])c1ccccc1.[Na+] [sodium benzoate]	comply with the relevant criteria	–
COC(=O)c1ccc(O)cc1.[Na] [sodium methyl paraben, sodium methyl parahydroxybenzoate]	less efficient preservative	–
C/C=C/C=C/C(=O)[O-].[Na+] [sodium sorbate]	results similar to that of sorbic acid	–
C/C=C/C=C/C(=O)O [sorbic acid]	comply with the relevant criteria	–
